Where a name gives a salt, the structure may show the parent alone.
Columns and labels:
human oxytocin receptors = biological target: T1, human oxytocin receptors (Homo sapiens, UniProt P30559); test: in vitro binding test, displacement of a radioiodated oxytocin analogue from oxytocin receptors; conditions: for IC50: membrane preparation of human oxytocin receptors; for IC50 OXT/IC50 V2: selectivity ratio versus V2
T1 sequence (P30559 1-389): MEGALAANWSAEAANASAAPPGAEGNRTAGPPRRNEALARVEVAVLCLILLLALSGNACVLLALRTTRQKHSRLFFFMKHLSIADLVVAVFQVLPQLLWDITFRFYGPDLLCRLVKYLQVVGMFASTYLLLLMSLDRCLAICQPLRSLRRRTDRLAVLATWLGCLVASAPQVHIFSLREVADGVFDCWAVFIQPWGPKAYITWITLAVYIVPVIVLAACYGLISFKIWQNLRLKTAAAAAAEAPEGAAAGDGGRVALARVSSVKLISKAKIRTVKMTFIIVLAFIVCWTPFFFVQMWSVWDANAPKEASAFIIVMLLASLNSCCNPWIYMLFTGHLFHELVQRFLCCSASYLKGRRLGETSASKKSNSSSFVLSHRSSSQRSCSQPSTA
Description: (§1) The affinity of the compounds of the invention for the Via and V1b vasopressin receptors and the affinity of the compounds of the invention for the oxytocin (OXT) receptors were also tested.
The affinity of the compounds according to the invention for the OXT receptors was determined in an in vitro binding test using the method described by J. Elands et al. in Eur. J. Pharmacol. 1987, 147, 197-207. This method comprises in vitro investigation of the displacement of a radioiodated analogue of oxytocin from the oxytocin receptors in a membrane preparation of human oxytocin receptors.

[1] = biological target: T2, human recombinant V2 vasopressin receptors (Homo sapiens, UniProt P30518); test: in vitro binding test, displacement of [H3]-AVP from V2 vasopressin receptors; conditions: CHO membranes, 3.5 nM [H3]-AVP, 45 minutes at 25° C.
T2 construct: expressed in transfected cells; host or cells: CHO
Description: The affinity of the compounds of the invention for the V2 vasopressin receptors was measured in in vitro binding tests, as described in J. Pharmacol. Exp. Ther., (2002), 300: pp. 1122-1130.
Plasma membranes (about 20 μg/ml) obtained from CHO tissue or cell line expressing human recombinant V2 vasopressin receptors, are incubated for 45 minutes at 25° C. in 200 μL of TRIS-HCl buffer (50 mM; pH 8.2) containing 2 mM of MgCl2, 1 mM of EDTA, 0.1% of BSA, 1/500 protease inhibitor cocktail (Sigma #P2714) and 3.5 nM of [H3]-AVP. The reaction is stopped by filtration and washing on GF/B filters. Nonspecific binding is determined in the presence of 1 μM of AVP. The compounds of the invention, dissolved beforehand to a concentration of 10^−2 M in DMSO, are tested in a dilution series.
For each concentration the results are expressed as percentage inhibition of specific binding. An IC50 (concentration of product inhibiting 50% of specific binding) is determined for each of the products using the in-house software Biost@t-SPEED v1.3 which employs the 4-parameter logistic model of Ratkovsky and Reedy (1986). Adjustment is obtained by nonlinear regression using Marquardt's algorithm of the SAS v8.2 software running under UNIX.

V1b receptors = biological target: T3, V1b receptors (Homo sapiens, UniProt P47901); test: affinity for V1b receptors (method of Sugimoto et al.); format: binding; conditions: for IC50 V1b/IC50 V2: selectivity ratio versus V2
T3 sequence (P47901 1-424): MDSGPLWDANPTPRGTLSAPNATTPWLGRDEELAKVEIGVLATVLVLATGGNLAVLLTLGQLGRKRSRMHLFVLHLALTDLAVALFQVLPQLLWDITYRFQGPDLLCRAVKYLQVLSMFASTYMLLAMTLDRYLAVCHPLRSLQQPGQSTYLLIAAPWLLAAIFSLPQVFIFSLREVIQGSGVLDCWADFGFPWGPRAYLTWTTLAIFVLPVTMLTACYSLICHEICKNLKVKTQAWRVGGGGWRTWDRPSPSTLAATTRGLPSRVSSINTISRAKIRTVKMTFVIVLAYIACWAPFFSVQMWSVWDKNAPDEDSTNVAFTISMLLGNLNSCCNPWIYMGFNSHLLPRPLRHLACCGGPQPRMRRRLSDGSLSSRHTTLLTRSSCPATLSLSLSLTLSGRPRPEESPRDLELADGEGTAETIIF
Description: as §1
(§2) The affinity of the compounds according to the invention for human Via receptors was determined according to the method described by M. Thibonnier et al. in J. Biol. Chem. 1994, 269, 3304-3310. The affinity of the compounds according to the invention for the V1b receptors was determined according to the method described by T. Sugimoto et al. in J. Biol. Chem. 1994, 269, 27088-27092.

V1a receptors = V1a receptors (Homo sapiens, UniProt P37288); test: affinity for V1a receptors (method of Thibonnier et al.); format: binding; conditions: for IC50 V1a/IC50 V2: selectivity ratio versus V2
Description: as §1, §2

T2 sequence (P30518 whole entry): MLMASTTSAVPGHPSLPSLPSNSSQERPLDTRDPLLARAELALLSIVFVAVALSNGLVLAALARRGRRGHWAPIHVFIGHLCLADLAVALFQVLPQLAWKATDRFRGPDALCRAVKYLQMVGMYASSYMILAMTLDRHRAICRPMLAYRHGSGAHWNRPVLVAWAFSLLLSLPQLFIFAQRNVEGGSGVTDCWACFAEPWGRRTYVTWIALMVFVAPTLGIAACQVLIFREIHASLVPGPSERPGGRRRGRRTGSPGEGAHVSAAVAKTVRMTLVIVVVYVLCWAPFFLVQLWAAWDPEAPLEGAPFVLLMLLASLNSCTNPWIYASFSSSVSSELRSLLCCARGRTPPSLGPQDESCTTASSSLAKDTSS
Chain of V1a receptors (P37288 whole entry): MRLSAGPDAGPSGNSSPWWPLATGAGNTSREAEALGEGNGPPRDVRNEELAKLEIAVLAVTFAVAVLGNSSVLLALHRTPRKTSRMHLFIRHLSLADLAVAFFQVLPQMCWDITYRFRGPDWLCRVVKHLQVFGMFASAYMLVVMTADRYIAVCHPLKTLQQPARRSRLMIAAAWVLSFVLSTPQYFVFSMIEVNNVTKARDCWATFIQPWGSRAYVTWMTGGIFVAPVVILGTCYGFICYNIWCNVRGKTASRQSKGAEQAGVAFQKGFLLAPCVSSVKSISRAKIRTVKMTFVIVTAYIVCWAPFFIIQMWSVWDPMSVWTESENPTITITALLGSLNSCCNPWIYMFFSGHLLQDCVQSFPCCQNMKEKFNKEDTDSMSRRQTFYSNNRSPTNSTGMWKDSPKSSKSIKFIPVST

Row | Compound | melting point | IC50 (human oxytocin receptors) | IC50 OXT/IC50 V2 (human oxytocin receptors) | IC50 [1] | IC50 (V1b receptors) | IC50 V1b/IC50 V2 (V1b receptors) | IC50 (V1a receptors) | IC50 V1a/IC50 V2 (V1a receptors)
1 | CCOc1ccc2c(c1)C(C)(c1cccc(OCCCN(C)C)c1)C(=O)N2S(=O)(=O)c1ccc(C(=O)NC(C)(C)C)cc1 (stereo not shown) [Example 145, N-tert-Butyl-4-{3-[3-(3-dimethylaminopropoxy)phenyl]-5-ethoxy-3-methyl-2-oxo-2,3-dihydroindole-1-sulphonyl}benzamide] | 86 °C | – | – | – | – | – | – | –
2 | CCOc1ccc2c(c1)C(C)(c1cc(N)ccc1Cl)C(=O)N2S(=O)(=O)c1ccc(C(=O)NC(C)(C)C)cc1OC (stereo not shown) [Example 55, 4-[3-(5-Amino-2-chloro-phenyl)-5-ethoxy-3-methyl-2-oxo-2,3-dihydro-indole-1-sulphonyl]-N-tert-butyl-3-methoxy-benzamide] | 166 °C | – | – | – | – | – | – | –
3 | CCOc1ccc2c(c1)C(C)(c1cc(C(=O)O)ccc1Cl)C(=O)N2S(=O)(=O)c1ccc(C(=O)NC(C)(C)C)cc1OC (stereo not shown) [Example 19, 3-[1-(4-tert-Butylcarbamoyl-2-methoxy-benzenesulphonyl)-5-ethoxy-3-methyl-2-oxo-2,3-dihydro-1H-indol-3-yl]-4-chloro-benzoic acid] | 200 °C | – | – | – | – | – | – | –
4 | CCOc1ccc2c(c1)C(C)(c1cc(C(=O)N3CC4CCN(C)C4C3)ccc1Cl)C(=O)N2S(=O)(=O)c1ccc(C(=O)NC(C)(C)C)cc1OC (stereo not shown) [Example 46, N-tert-Butyl-4-{3-[2-chloro-5-(1-methyl-hexahydro-pyrrolo[3,4-b]pyrrole-5-carbonyl)-phenyl]-5-ethoxy-3-methyl-2-oxo-2,3-dihydro-indole-1-sulphonyl}-3-methoxy-benzamide] | 130 °C | – | – | – | – | – | – | –
5 | CCOc1ccc2c(c1)C(C)(c1cc(C(=O)N[C@@H]3CCNC3)ccc1Cl)C(=O)N2S(=O)(=O)c1ccc(C(=O)NC(C)(C)C)cc1OC (single isomer, unassigned) [Example 43] | 216 °C | 700 nM | >100 | 1.3 nM | > 1000 nM | >100 | 730 nM | >100
6 | CCOc1ccc2c(c1)C(C)(c1cc(C(=O)NCCN)ccc1Cl)C(=O)N2S(=O)(=O)c1ccc(C(=O)NC(C)(C)C)cc1OC (stereo not shown) (as salt: hydrochloride) [Example 47, N-tert-Butyl-4-{3-[2-chloro-5-(2-aminoethylamino-carbonyl)-phenyl]-5-ethoxy-3-methyl-2-oxo-2,3-dihydro-indole-1-sulphonyl}-3-methoxy-benzamide] | 204 °C | – | – | – | – | – | – | –
7 | CCOc1ccc2c(c1)C(C)(c1ccccc1F)C(=O)N2S(=O)(=O)c1ccc(C(=O)NC(C)(C)C)cc1 (stereo not shown) [Example 101, N-tert-butyl-4-[3-methyl-3-(2-fluorophenyl)-5-ethoxy-2-oxo-2,3-dihydroindole-1-sulphonyl]benzamide] | 116 °C | – | – | – | – | – | – | –
8 | CCOc1ccc2c(c1)C(C)(c1ccccc1Cl)C(=O)N2S(=O)(=O)c1ccc(C(=O)NC(C)(C)CO)cc1 (stereo not shown) [Example 72, 4-[3-(2-chlorophenyl)-5-ethoxy-3-methyl-2-oxo-2,3-dihydroindole-1-sulphonyl]-N-(2-hydroxy-1,1-dimethylethyl)benzamide] | 152 °C | 390 nM | >100 | 1.3 nM | 940 nM | >100 | > 1000 nM | >100
9 | CCOc1ccc2c(c1)C(C)(c1c(F)cccc1Cl)C(=O)N2S(=O)(=O)c1ccc(C(=O)NC(C)(C)C)cc1 (stereo not shown) [Example 125, N-tert-butyl-4-[3-methyl-3-(2-chloro-6-fluorophenyl)-5-ethoxy-2-oxo-2,3-dihydro-indole-1-sulphonyl]benzamide] | 128 °C | – | – | – | – | – | – | –
10 | CCOc1ccc2c(c1)C(C)(c1ccccc1Cl)C(=O)N2S(=O)(=O)c1ccc(C(=O)NC(C)(C)C)cc1 (single isomer, unassigned) [Example 12, N-tert-butyl-4-[3-(2-chlorophenyl)-5-ethoxy-3-methyl-2-oxo-2,3-dihydroindole-1-sulphonyl]benzamide] | 153 °C | 140 nM | 74 | 1.9 nM | > 1000 nM | >100 | 450 nM | >100
11 | CC(C)(C)NC(=O)c1ccc(S(=O)(=O)N2C(=O)C(C)(c3ccccc3Cl)c3cc(OCC(F)(F)F)ccc32)cc1 (stereo not shown) [Example 143, N-tert-Butyl-4-[3-(2-chlorophenyl)-3-methyl-2-oxo-5-(2,2,2-trifluoroethoxy)-2,3-di-hydroindole-1-sulphonyl]benzamide] | 134 °C | – | – | – | – | – | – | –
12 | CCOc1ccc2c(c1)C(C)(c1ccccc1Cl)C(=O)N2S(=O)(=O)c1ccc(C(=O)NC(C)(C)CC)cc1 (stereo not shown) [Example 4, 4-[3-(2-Chloro-phenyl)-5-ethoxy-3-methyl-2-oxo-2,3-dihydro-indole-1-sulphonyl]-N-(1,1-dimethyl-propyl)-benzamide] | 138 °C | – | – | – | – | – | – | –
13 | CCOc1ccc2c(c1)C(C)(c1cc(C(=O)O)ccc1Cl)C(=O)N2S(=O)(=O)c1ccc(C(=O)NC(C)(C)C)cc1 (stereo not shown) [Example 48, 3-[1-(4-tert-Butylcarbamoyl-benzenesulphonyl)-5-ethoxy-3-methyl-2-oxo-2,3-dihydro-1H-indol-3-yl]-4-chloro-benzoic acid] | 188 °C | – | – | – | – | – | – | –
14 | CCOc1ccc2c(c1)C(C)(c1ccccc1)C(=O)N2S(=O)(=O)c1ccc(C(=O)NC(C)(C)C)cc1 (stereo not shown) [Example 98, N-tert-butyl-4-[3-methyl-3-phenyl-5-ethoxy-2-oxo-2,3-dihydroindole-1-sulphonyl]-benzamide] | 89 °C | – | – | – | – | – | – | –
15 | CCOc1ccc2c(c1)C(C)(c1cc(C(=O)NCCN3CCOCC3)ccc1Cl)C(=O)N2S(=O)(=O)c1ccc(C(=O)NC(C)(C)C)cc1OC (stereo not shown) [Example 36, 4-chloro-3-[1-(4-tert-butylcarbamoyl-2-methoxybenzenesulphonyl)-5-ethoxy-3-methyl-2-oxo-2,3-dihydro-1H-indol-3-yl]-N-(2-morpholin-4-ylethyl)benzamide] | 124 °C | 350 nM | 67 | 5.2 nM | > 1000 nM | >100 | > 1000 nM | >100
16 | COc1cc(C(=O)NC(C)(C)C)ccc1S(=O)(=O)N1C(=O)C(C)(c2ccccc2Cl)c2cc(O)ccc21 (stereo not shown) [Example 144] | 166 °C | 130 nM | 50 | 2.6 nM | > 1000 nM | >100 | 310 nM | >100
17 | CCOc1ccc2c(c1)C(C)(c1cccc(OC)c1)C(=O)N2S(=O)(=O)c1ccc(C(=O)NC(C)(C)C)cc1 (stereo not shown) [Example 103, N-tert-butyl-4-[3-(3-methoxyphenyl)-5-ethoxy-3-methyl-2-oxo-2,3-dihydroindole-1-sulphonyl]benzamide] | 101 °C | – | – | – | – | – | – | –

— patent US20100069384A1, “5-ALKYLOXY-INDOLIN-2-ONE DERIVATIVES, PREPARATION THEREOF AND APPLICATION THEREOF IN THERAPY” (SANOFI-AVENTIS, priority 2006, published 2010)
